# From patent US7625887B2, “Receptor agonists” (Takeda Pharmaceutical Company Limited, priority 2003, dated 2009)
# Counter-ions that a name gives are not always drawn.
# Columns and labels:
# Type in all cases: cell-based
# [1] = target: T1, human TGR5 (Homo sapiens, UniProt Q8TDU6); experiment: cAMP production increasing activity in human TGR5 expressing CHO cells; conditions: test compound 1 μM, 30 min; 1 μM lithocholic acid = 100%, no addition = 0%; average of 3 groups
# T1 construct: expressed in transfected cells; host or cells: CHO cells
# T1 sequence (Q8TDU6 1-330): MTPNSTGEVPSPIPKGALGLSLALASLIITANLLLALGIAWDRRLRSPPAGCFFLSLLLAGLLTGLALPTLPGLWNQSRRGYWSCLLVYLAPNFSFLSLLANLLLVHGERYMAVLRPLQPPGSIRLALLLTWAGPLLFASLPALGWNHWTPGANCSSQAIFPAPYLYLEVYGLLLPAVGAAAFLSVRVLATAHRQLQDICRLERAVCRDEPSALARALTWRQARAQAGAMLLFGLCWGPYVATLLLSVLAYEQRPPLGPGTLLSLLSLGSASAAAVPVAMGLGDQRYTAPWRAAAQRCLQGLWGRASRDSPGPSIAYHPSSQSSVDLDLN
# Procedure: As the assay buffer, Hank's balanced salt solution (HBSS, Invitrogen) supplemented with 0.1% bovine serum albumin (BSA, Sigma) and 0.5 mM 3-isobutyl-1-methylxanthine (IBMX, Sigma) was used. A test compound sample (1 μM) diluted with the assay buffer was added to the cells. The cells were incubated at 37° C. for 30 min. and the supernatant was suctioned. The intracellular cAMP amount increased by the stimulation of the test compound was quantitatively determined using a HitHunter™ EFC Cyclic AMP Chemiluminescence Assay Kit (ABI) kit.
# [2] = target: T2, rat TGR5 (Rattus norvegicus, UniProt Q80T02); experiment: cAMP production increasing activity in rat type TGR5 expressing CHO cells; conditions: 0.5 h, read-out: cAMP producing activity (control %)
# T2 construct: expressed in transfected cells; host or cells: CHO cells
# T2 sequence (Q80T02 1-329): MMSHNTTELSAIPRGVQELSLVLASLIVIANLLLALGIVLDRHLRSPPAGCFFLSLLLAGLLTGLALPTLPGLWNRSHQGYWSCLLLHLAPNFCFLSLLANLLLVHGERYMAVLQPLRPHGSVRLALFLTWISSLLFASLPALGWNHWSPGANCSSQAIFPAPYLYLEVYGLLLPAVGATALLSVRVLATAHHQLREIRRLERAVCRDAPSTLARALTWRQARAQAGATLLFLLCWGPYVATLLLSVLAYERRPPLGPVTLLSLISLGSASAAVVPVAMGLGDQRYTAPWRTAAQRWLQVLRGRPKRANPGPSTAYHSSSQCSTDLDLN
# Procedure: (§1) After culture, the cells were detached with 0.5 mM EDTA/PBS, washed with PBS, and suspended in Buffer 1 (HBSS+0.1% BSA, 25 mM HEPES pH 7.3, 0.5 mM IBMX) at a density of 1×10^7 cells/ml. The obtained cell suspension (460 μl), anti-cAMP acceptor beads (23 μl) of AlphaScreen cAMP assay kit (Perkin Elmer) and Buffer 1 (667 μl) were mixed and dispensed to a white 96 well plate (Costar) by 10 μl. Then, a test compound diluted with Buffer 1 was added to each well by 10 μl. At this time, one row of the plate was free of the cell suspension but added with anti-cAMP acceptor beads (9 μl) and Buffer 1 (441 μl) alone, and serial dilutions of cAMP were added instead of the test compound and used as the standard. A mixture of the cell suspension and the test compound contained in the plate was allowed to react at room temperature for 30 min. […] The plate was shaken at room temperature for 2.5 hrs and fluorescence intensity was measured by Fusion α (Parkin Elmer), and the cAMP concentration of each well was calculated using the cAMP standard on each plate.
# [3] = target: T1, human TGR5; experiment: cAMP production increasing activity in human TGR5 expressing CHO cells; conditions: read-out: EC50 value (concentration necessary to make the cAMP production amount 50%)
# [4] = test system: guinea pig TGR5; experiment: cAMP production increasing activity in guinea pig TGR5 expressing CHO cells; conditions: test compound 2 μM; 10 μM lithocholic acid = 100%; average of 3 groups
# Procedure: as §1, with “The guinea pig type TGR5 expressing CHO cells were seeded in one 150 cm^2 flask at 1×10^7 cells, and cultured overnight at 37° C., 5% CO2. After” for “After”
cAMP production increasing activity (control %) [1],activation at 2 µM [2],EC50 [3],SMILES,cAMP producing activity (control %) [4]
,108%,< 0.1 µM,"CC(C)(C)CN1C(=O)C(CC(=O)NCc2ccccc2F)N(Cc2ccncc2)Cc2ccccc21 (centres unmarked) [Example 30B, N-(2-fluorobenzyl)-2-[1-neopentyl-2-oxo-4-(pyridin-4-ylmethyl)-2,3,4,5-tetrahydro-1H-1,4-benzodiazepin-3-yl]acetamide]",
,,< 0.1 µM,"FC(F)(F)c1cc(CCN2CCOc3nccc(-c4ccccc4)c3C2)cc(C(F)(F)F)c1 [Example 45C, 4-{2-[3,5-bis(trifluoromethyl)phenyl]ethyl}-6-phenyl-2,3,4,5-tetrahydropyrido[3,2-f][1,4]oxazepine hydrochloride]",
,,< 0.1 µM,"O=S(=O)(c1cc(C(F)(F)F)cc(C(F)(F)F)c1)N1CCCOc2nccc(-c3ccc(F)cc3)c2C1 [Example 60C, 5-{[3,5-bis(trifluoromethyl)phenyl]sulfonyl}-7-(4-fluorophenyl)-3,4,5,6-tetrahydro-2H-pyrido[2,3-b][1,5]oxazocine]",
,101%,< 0.1 µM,"Fc1ccc(-c2ccnc3c2CN(Cc2cc(C(F)(F)F)cc(C(F)(F)F)c2)CCCCO3)cc1 [Example 61C, 6-[3,5-bis(trifluoromethyl)benzyl]-8-(4-fluorophenyl)-2,3,4,5,6,7-hexahydropyrido[2,3-b][1,5]oxazonine]",

# The next lines start with the compound.
SMILES,cAMP production increasing activity (control %) [1],activation at 2 µM [2],EC50 [3],cAMP producing activity (control %) [4]
"CC(C)(C)CN1C(=O)[C@@H](CC(=O)NCc2ccccc2F)O[C@@H](c2cccc(N)c2)c2cc(Cl)ccc21 (relative stereo) [Reference Example 1, 2-[3,5-trans-5-(3-aminophenyl)-7-chloro-1-neopentyl-2-oxo-1,2,3,5-tetrahydro-4,1-benzoxazepin-3-yl]-N-(2-fluorobenzyl)acetamide]",97 control %,,,
"CC(C)(C)CN1C(=O)[C@@H](CC(=O)NCc2ccccc2F)O[C@@H](c2cccc(C3OCCO3)c2)c2cc(Cl)ccc21 (relative stereo) [Reference Example 2, 2-[3,5-trans-7-chloro-5-[3-([1,3]dioxolan-2-yl)phenyl]-1-neopentyl-2-oxo-1,2,3,5-tetrahydro-4,1-benzoxazepin-3-yl]-N-(2-fluorobenzyl)acetamide]",108 control %,,,
"CC(C)(C)CN1C(=O)[C@@H](CC(=O)NCc2ccccc2F)O[C@@H](c2cccc(CNS(C)(=O)=O)c2)c2cc(Cl)ccc21 (relative stereo) [Reference Example 4, 2-[3,5-trans-7-chloro-5-[3-(methanesulfonylaminomethyl)phenyl]-1-neopentyl-2-oxo-1,2,3,5-tetrahydro-4,1-benzoxazepin-3-yl]-N-(2-fluorobenzyl)acetamide]",80 control %,,,
"CC(C)(C)CN1C(=O)[C@@H](CC(=O)NCc2ccccc2F)O[C@@H](c2cccc(CNC(=O)C(F)(F)F)c2)c2cc(Cl)ccc21 (relative stereo) [Reference Example 5, N-[3-[3,5-trans-7-chloro-3-[2-[(2-fluorobenzyl)amino]-2-oxoethyl]-1-neopentyl-2-oxo-1,2,3,5-tetrahydro-4,1-benzoxazepin-5-yl]benzyl]-2,2,2-trifluoroacetamide]",116 control %,,,
"CC(C)(C)CN1C(=O)[C@@H](CC(=O)NCc2ccccc2F)O[C@@H](c2cccc(CO)c2)c2cc(Cl)ccc21 (relative stereo) [Reference Example 9, 2-[3,5-trans-7-chloro-5-[3-(hydroxymethyl)phenyl]-1-neopentyl-2-oxo-1,2,3,5-tetrahydro-4,1-benzoxazepin-3-yl]-N-(2-fluorobenzyl)acetamide]",128 control %,,,
"CC(=O)NCc1cccc(C2OC(CC(=O)NCC3CCCCCC3)C(=O)N(CC(C)(C)C)c3ccc(Cl)cc32)c1 (stereo not drawn) [Example 17, 2-[3,5-trans-5-[3-(acetylaminomethyl)phenyl]-7-chloro-1-neopentyl-2-oxo-1,2,3,5-tetrahydro-4,1-benzoxazepin-3-yl]-N-(cycloheptylmethyl)acetamide]",,107%,< 0.1 µM,
"Cc1cc(C(=O)N2Cc3ccccc3N(CC(C)C)C(=O)C2CC(=O)NCc2ccccc2F)ccn1 (centres unmarked) [Example 23B, N-(2-fluorobenzyl)-2-[1-isobutyl-4-(2-methylisonicotinoyl)-2-oxo-2,3,4,5-tetrahydro-1H-1,4-benzodiazepin-3-yl]acetamide]",,,< 0.1 µM,
"COC(=O)NCc1cccc(C2OC(CC(=O)NCC3CCCCC3)C(=O)N(CC(C)(C)C)c3ccc(Cl)cc32)c1 (stereo not drawn) [Example 30, methyl [3-[3,5-trans-7-chloro-3-[2-[(cyclohexylmethyl)amino]-2-oxoethyl]-1-neopentyl-2-oxo-1,2,3,5-tetrahydro-4,1-benzoxazepin-5-yl]benzyl]carbamate]",,114%,< 0.1 µM,86 control %
"O=C(c1cc(Cl)cc(Cl)c1)N1CCOc2nccc(-c3ccccc3)c2C1 [Example 32C, 4-(3,5-dichlorobenzoyl)-6-phenyl-2,3,4,5-tetrahydropyrido[3,2-f][1,4]oxazepine]",,,,89 control %
"O=S(=O)(c1cccc2ccccc12)N1CCOc2nccc(-c3ccccc3)c2C1 [Example 42C, 4-(1-naphthylsulfonyl)-6-phenyl-2,3,4,5-tetrahydropyrido[3,2-f][1,4]oxazepine]",,,< 0.1 µM,104 control %
"COC(=O)NCc1cccc(C2OC(CC(=O)NCc3ccccc3F)C(=O)N(CC(C)C)c3ccc(Cl)cc32)c1 (stereo not drawn) [Example 43, methyl [3-[3,5-trans-7-chloro-3-[2-[(2-fluorobenzyl)amino]-2-oxoethyl]-1-isobutyl-2-oxo-1,2,3,5-tetrahydro-4,1-benzoxazepin-5-yl]benzyl]carbamate]",,,< 0.1 µM,82 control %
"CC(C)(C)CN1C(=O)C(CC(=O)NCc2ccccc2F)OC(c2cccc(Cn3ccnc3)c2)c2cc(Cl)ccc21 (stereo not drawn) [Example 60, 2-[3,5-trans-7-chloro-5-[3-(1H-imidazol-1-ylmethyl)phenyl]-1-neopentyl-2-oxo-1,2,3,5-tetrahydro-4,1-benzoxazepin-3-yl]-N-(2-fluorobenzyl)acetamide]",,,< 0.1 µM,
